Source: PMC4710095 (Journal of medicinal chemistry, 2012)

Tests used:
T. cruzi = conditions: in vivo assays; cited from earlier work
TcFPPS = TcFPPS enzymatic activity; IC50 were calculated before; cited from earlier work
[1] = biological target: T1, TcFPPS (Trypanosoma cruzi farnesyl diphosphate synthase) (Trypanosoma cruzi, UniProt Q8WS26); assay: Isothermal titration calorimetry of bisphosphonate binding to TcFPPS; conditions: ITC, 28 °C; for ΔG / ΔH / ΔS: single binding site per monomer
T1 sequence (Q8WS26 64-425): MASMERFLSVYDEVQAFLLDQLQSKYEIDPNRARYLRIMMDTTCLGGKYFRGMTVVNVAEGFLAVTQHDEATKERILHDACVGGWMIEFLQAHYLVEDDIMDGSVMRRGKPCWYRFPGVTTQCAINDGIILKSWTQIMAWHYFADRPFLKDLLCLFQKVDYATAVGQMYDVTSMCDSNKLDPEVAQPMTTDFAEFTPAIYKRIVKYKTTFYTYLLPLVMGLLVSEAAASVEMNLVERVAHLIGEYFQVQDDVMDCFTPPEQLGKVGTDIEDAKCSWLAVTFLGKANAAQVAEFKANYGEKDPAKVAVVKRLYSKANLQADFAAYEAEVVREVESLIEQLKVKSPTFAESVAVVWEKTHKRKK

| Compound | survival of T. cruzi-infected mice (T. cruzi) | IC50 (TcFPPS) | ΔG [1] | ΔH [1] | ΔS [1] | unfavorable binding enthalpy, excess over the other inhibitors ([1]; compared with the other n-alkyl inhibitors) | ΔH, 2-site model, first value ([1]; values calculated using 2-site model (two different sites per dimer), first site) | ΔH, 2-site model, second value ([1]; values calculated using 2-site model (two different sites per dimer), second site) |
| --- | --- | --- | --- | --- | --- | --- | --- | --- |
| O=P(O)(O)C(O)(Cc1cccnc1)P(=O)(O)O [risedronate] | significantly increase survival | – | – | – | – | – | – | – |
| O=P(O)(O)C(CNC1CCCCC1)P(=O)(O)O [Compound 14, [2-(cyclohexylamino)ethane-1,1-diyl]bisphosphonic acid] | – | 13 nM | – | – | – | – | – | – |
| CCCCCCNCC(P(=O)(O)O)P(=O)(O)O [Compound 12, [2-(n-hexylamino)ethane-1,1-diyl]bisphosphonic acid] | – | 490 nM | -8.72 kcal/mol | 7.87 ± 0.11 kcal/mol | 55.4 cal/mol/K | 1.5 to 2.0 kcal/mol | – | – |
| CCCCCNCC(P(=O)(O)O)P(=O)(O)O [Compound 11, [2-(n-pentylamino)ethane-1,1-diyl]bisphosphonic acid] | – | 1840 nM | -8.15 kcal/mol | 5.22 ± 0.11 kcal/mol | 44.7 cal/mol/K | – | – | – |
| CCCNCC(P(=O)(O)O)P(=O)(O)O [Compound 10, [2-(n-propylamino)ethane-1,1-diyl]bisphosphonic acid] | – | 38 nM | -10.43 kcal/mol | 6.35 ± 0.07 kcal/mol | 56.1 cal/mol/K | – | – | – |
| CCCCCCCNCC(P(=O)(O)O)P(=O)(O)O [Compound 13, [2-(n-heptylamino)ethane-1,1-diyl]bisphosphonic acid] | – | 58 nM | -9.88 kcal/mol | 5.65 ± 0.09 kcal/mol | 51.9 cal/mol/K | – | 6.39 ± 0.36 kcal/mol | 4.62 ± 0.44 kcal/mol |
